Test results from patent US20240099214A1, “PLANT DEFENCE GENE EXPRESSION” (UPL Corporation Limited, priority 2021, published 2024).

Key:
[1] = tested on: Tropinone reductase homolog at 1g07440-like (gene 10, Solyc06g083470.2); assay: qRT-PCR expression of gene 10 in tomato leaves; format: in vivo, Tomato ecotype corbarino; design: key: relative expression normalized to a-tubulin housekeeping gene
Protocol: (§1) Tomato ecotype “corbarino” reported to be susceptible to TSWV infection was used in the experiment. Plants were grown in pots in a climatic chamber with a photoperiod of 16/8 hour at 25° C.
(§2) The viral strain (TSWV PV PV-0393) was utilized in the experiment. The virus was mechanically inoculated and propagated on tomato “corbarino”. The inoculum was prepared in an ice-cooled mortar grounding 1 gr of infected tomato tissue in 10 ml of Na-phosphate buffer 0.01M. The fresh prepared inoculum was stored in ice before use. Tomato plants at BBCH16 were dusted with Carborundum 600 mesh and selected leaves were rubbed with some droplets of inoculum. After 5 min. plants were sprayed with sterile water to remove the excess of inoculum and preserve the cell turgor.
(§3) Four treatments were compared: i) Mock inoculated; ii) TSWV; iii) 0.25% Laminarin; iv) 0.25% Laminarin+TSWV. In the last treatment the virus was inoculated 24 hrs after the laminarin application.
(§4) Total RNA was extracted from systemic infected tomato leaves by using the Quick-RNA Plant Kit (Zymo Research) following the manufacturer instructions. The extractions were carried out using three plants after 12 h, 24 h, 48 h, 72 h, 7 days after inoculation. Leaves were instantly frozen in liquid nitrogen after cutting to avoid any deterioration of the sample as well as any defense reaction. The RNA concentration was quantified by measuring the absorbance at 260 nm using a Nanodrop 2000 (Thermofisher). The purity of all of the RNA samples was assessed at an absorbance ratio of OD260/280 and OD260/230, while its structural integrity was checked by agarose gel electrophoresis. Only high-quality RNA with OD 260/280 and OD 260/230>2 was used for subsequent steps. Single-stranded cDNA was synthesized from 1 μg of total RNA using an iScript™ Select cDNA Synthesis Kit and random hexamers as primers (Bio-Rad, Milan, Italy), according to the manufacturer's instructions. Three biological replicates were created from the 3 leaves collected to test 15 genes. Alpha tubulin was used as reference gene.
(§5) qPCR reactions were performed with BioRad (Applied Biosystems, Foster City, CA, USA) using SYBR R Green. Each reaction was performed in 20 μl containing 10 μl of 2× Power SYBR Green PCR Master Mix (Life Technologies), 0.2-0.3 μM primers and cDNA samples diluted 1:20. Each qPCR reaction was performed in triplicate. Reactions were run using the cycling parameter described previously (Reid et al., 2006) and the qPCR data were analyzed by the Ct method (Pfaffl, 2001). In order to analyze the qPCR data, a-tubulin gene was used as housekeeping to determine the relative expression level of the other genes analyzed in this work. For the determination of qPCR efficiency of each primer pairs, a standard curve was performed using the following cDNA dilutions: 1:4, 1:16, 1:64; 1:256 and 1:1024. Every measurement was made in triplicate. The corresponding qPCR efficiencies (E) were calculated for every primer pair with the software 7300 System SDS software (Applied Biosystems, Foster City, CA, USA) according to the equation E=(10−1/slope−1)×100 (Rutledge and Stewart, 2008).
(§6) The significance of the differences between the gene expressions levels were compared by one-way ANOVA (p=0.01) and the means were separated by Tukey post-hoc test using SPSS ver.26 ([…]).

[2] = tested on: AY093595.1 (gene 13, PR protein); assay: qRT-PCR expression of gene 13 in tomato leaves; format: in vivo, Tomato ecotype corbarino; design: key: relative expression normalized to a-tubulin housekeeping gene
Protocol: as §1, §2, §3, §4, §5, §6

[3] = Gene_13, 12 hr, treatment Laminarin
[4] = Gene_13, 12 hr, treatment Laminarin + virus
[5] = Gene_13, 24 hr, treatment Laminarin
[6] = Gene_13, 24 hr, treatment Laminarin + virus
[7] = Gene_13, 48 hr, treatment Laminarin
[8] = Gene_13, 48 hr, treatment Laminarin + virus
[9] = Gene_13, 72 hr, treatment Laminarin
[10] = Gene_13, 72 hr, treatment Laminarin + virus

Substance laminarin has an RQ1 ([1]; 12 hr, Laminarin + virus) of 11.314, an RQ2 ([1]; 12 hr, Laminarin + virus) of 15.111 and an RQ3 ([1]; 12 hr, Laminarin + virus) of 14.571. The RQ mean ([1]; 12 hr, Laminarin + virus) was 13.665, the RQ1 ([1]; 12 hr, Laminarin alone) was 10.134 and the RQ2 ([1]; 12 hr, Laminarin alone) was 11.716. For the same substance, the RQ3 ([1]; 12 hr, Laminarin alone) was 14.046, the RQ mean ([1]; 12 hr, Laminarin alone) was 11.966 and the RQ1 ([1]; 24 hr, Laminarin + virus) was 12.827. For the same substance, the RQ2 ([1]; 24 hr, Laminarin + virus) was 10.653, the RQ3 ([1]; 24 hr, Laminarin + virus) was 14.308 and the RQ mean ([1]; 24 hr, Laminarin + virus) was 12.596. The RQ1 ([1]; 24 hr, Laminarin alone) was 13.673, the RQ2 ([1]; 24 hr, Laminarin alone) was 15.462 and the RQ3 ([1]; 24 hr, Laminarin alone) was 14.026. For the same substance, the RQ mean ([1]; 24 hr, Laminarin alone) was 14.387, the RQ1 ([1]; 48 hr, Laminarin + virus) was 10.393 and the RQ2 ([1]; 48 hr, Laminarin + virus) was 11.439. The RQ3 ([1]; 48 hr, Laminarin + virus) was 11.568, the RQ mean ([1]; 48 hr, Laminarin + virus) was 11.133 and the RQ1 ([1]; 48 hr, Laminarin alone) was 14.550. It also gave an RQ2 ([1]; 48 hr, Laminarin alone) of 13.402, an RQ3 ([1]; 48 hr, Laminarin alone) of 19.692 and an RQ mean ([1]; 48 hr, Laminarin alone) of 15.882. For the same substance, the RQ1 ([1]; 72 hr, Laminarin + virus) was 10.994, the RQ2 ([1]; 72 hr, Laminarin + virus) was 19.941 and the RQ3 ([1]; 72 hr, Laminarin + virus) was 16.529. For the same substance, the RQ mean ([1]; 72 hr, Laminarin + virus) was 15.821, the RQ1 ([1]; 72 hr, Laminarin alone) was 28.092 and the RQ2 ([1]; 72 hr, Laminarin alone) was 16.708. It also gave an RQ3 ([1]; 72 hr, Laminarin alone) of 22.307, an RQ mean ([1]; 72 hr, Laminarin alone) of 22.369 and an RQ1 [2, 3] of 0.9025. The RQ2 [2, 3] was 11.021, the RQ3 [2, 3] was 12.323 and the RQ mean [2, 3] was 10.790. The RQ1 [2, 4] was 13.339, the RQ2 [2, 4] was 10.934 and the RQ3 [2, 4] was 11.013. It also gave an RQ mean [2, 4] of 11.762, an RQ1 [2, 5] of 13.750 and an RQ2 [2, 5] of 14.763. It also gave an RQ3 [2, 5] of 13.300, an RQ mean [2, 5] of 13.938 and an RQ1 [2, 6] of 13.085. It also gave an RQ2 [2, 6] of 11.438, an RQ3 [2, 6] of 12.395 and an RQ mean [2, 6] of 12.306. For the same substance, the RQ1 [2, 7] was 31.999, the RQ2 [2, 7] was 13.498 and the RQ3 [2, 7] was 29.839. The RQ mean [2, 7] was 25.112, the RQ1 [2, 8] was 25.291 and the RQ2 [2, 8] was 0.8970. It also gave an RQ3 [2, 8] of 28.993, an RQ mean [2, 8] of 21.085 and an RQ1 [2, 9] of 45.838. For the same substance, the RQ2 [2, 9] was 96.757, the RQ3 [2, 9] was 93.370 and the RQ mean [2, 9] was 78.655. For the same substance, the RQ1 [2, 10] was 53.674, the RQ2 [2, 10] was 42.556 and the RQ3 [2, 10] was 49.901. The RQ mean [2, 10] was 48.710.
